Assay results taken from patent US7138262B1, “High mannose proteins and methods of making high mannose proteins” (Shire Human Genetic Therapies, Inc., priority 2000, dated 2006).

Tests used:
[1] = system: HT-1080 cells producing GA-GCB; test: Roller bottle production of glucocerebrosidase (GA-GCB) in cells treated with mannosidase inhibitors; type: cell-based, human; conditions: for Glucocerebrosidase Activity, Harvest 1: medium harvested about every 24 hours, specific activity 2,500 Units/mg
Method: Ten roller bottles (surface area, 1700 cm^2 each) were seeded in Growth Medium (DMEM with 10% calf serum) with HT-1080 cells producing GA-GCB. Following two weeks of growth, the medium was aspirated and 200 mL of fresh Production Medium (DMEM/F12, 0% calf serum) was added to three sets of roller bottles. Two sets of 4 roller bottles were treated with 1 μg/mL of either kifunensine or swainsonine. The third group of two roller bottles received no drug treatment. After approximately 24 hours, the medium from each roller bottle was harvested, pooled and a sample taken for GA-GCB enzymatic activity analysis. This procedure was repeated for seven days. […] Absolute levels of the enzyme, however, varied according to drug treatment group with the following average GA-GCB production levels observed across the seven harvests: 38.3±3.5 mg/L (control, no drug treatment), 24.5±4.0 mg/L (swainsonine, 1 μg/mL), and 21.3±2,8 mg/L (kifunensine, 1 μg/mL).

mouse J774E cells = test: Internalization (uptake) of glucocerebrosidase into J774E macrophage cells, with or without mannan; type: cell-based; conditions: producing cells treated with 1 μg/mL of drug
Method: GA-GCB produced in HT-1080 cells was used in an in vitro assay to determine uptake efficiency in a mouse macrophage cell line. The specific objective of the experiment was to determine the absolute and mannose receptor-specific uptake of GA-GCB in mouse J774E cells. One day prior to assay, J774E cells were plated at 50,000 cells/cm^2 in 12 well plates in Growth Medium. For the assay, 0.5 mL of Production Medium (DMEM/F12), 0% calf serum) containing 50 nM vitamin D3 (1,2-5, Dihydroxy vitamin D3) was added to the cells. Unpurified GA-GCB (from harvest 4, Table 1) was added to the test wells at a final concentration of 10 μg/mL in the presence or absence of 2 μg/mL mannan (a competitor for the mannose receptor). Three different forms of GA-GCB were used: GA-GCB from cells treated with kifunensine (1 μg/mL), GA-GCB from cells treated with swainsonine (1 μg/mL), and GA-GCB (1 μg/mL) from untreated cells. Control wells received no GA-GCB. The wells were incubated for 4 hours at 37° C., then washed extensively in buffered saline, scraped into GA-GCB enzyme reaction buffer, passed through 2 freeze/thaw cycles, and clarified by centrifugation. The supernantant was then quantitatively tested for enzyme activity and total protein. Internalization of GA-GCB into mouse J744E cells is shown in Table 2 and is reported as Units/mg of cell lysate. […]

[2] = system: HT-1080 cells producing GA-GCB; test: Isoelectric focusing (IEF) analysis of GA-GCB glycoforms from cells treated with kifunensine or swainsonine; type: cell-based, human; conditions: for apparent isoelectric point (pI) of GA-GCB: 0.1 to 2 μg/mL drug, samples from the third day
Method: HT-1080 cells producing GA-GCB were plated in duplicate 6-well plates and the Production Medium adjusted to the following concentrations of kifunensine or swainsonine: 0 (no drug), 0.1, 0.25, 0.5, 1, and 2 μg/mL. The medium was harvested and the cells refed every 24 hours for three days. The samples from the third day were subjected to isoelectric focusing (IEF) analysis. The effect of kifunensine and swainsonine on the molecular charge of GA-GCB is shown by the IEF analysis.

[3] = inhibitor 1 μg/ml, across seven harvests

Row | Compound | reduction of GA-GCB production relative to control ([1]; inhibitor 1 μg/mL, average of seven harvests) | Glucocerebrosidase Activity, Average ± Standard Deviation [1, 3] | Glucocerebrosidase Activity, Harvest 2 ([1]; inhibitor 1 μg/ml) | Glucocerebrosidase Activity, Harvest 3 ([1]; inhibitor 1 μg/ml) | Glucocerebrosidase Activity, Harvest 4 ([1]; inhibitor 1 μg/ml) | Glucocerebrosidase Activity, Harvest 5 ([1]; inhibitor 1 μg/ml) | Glucocerebrosidase Activity, Harvest 6 ([1]; inhibitor 1 μg/ml) | Glucocerebrosidase Activity, Harvest 7 ([1]; inhibitor 1 μg/ml) | Glucocerebrosidase Activity, Harvest 1 ([1]; inhibitor 1 μg/ml) | greater uptake of GA-GCB with kifunensine than with swainsonine (mouse J774E cells) | apparent isoelectric point (pI) of GA-GCB [2] | shift in pI of GA-GCB, compared between the drugs ([2]; highest concentration tested (2 μg/mL)) | average GA-GCB production level across the seven harvests ([1]; inhibitor 1 μg/mL) | GA-GCB production level, average ± SD [1, 3]
1 | O=C1N[C@@H]2[C@@H](O)[C@@H](O)[C@H](O)[C@@H](CO)N2C1=O [Kifunensine, kifunensine] | 44% | 21.3 ± 2.8 mg/L | 22.9 mg/L | 17.7 mg/L | 21.2 mg/L | 18.4 mg/L | 21.0 mg/L | 22.0 mg/L | 26.0 mg/L | approximately 2 fold | concentration dependent increase | much larger shift in pI than swainsonine | – | –
2 | O[C@H]1[C@H]2[C@H](O)CCCN2C[C@H]1O [Swainsonine, swainsonine] | – | – | 17.4 mg/L | 28.5 mg/L | 27.0 mg/L | 22.9 mg/L | 25.0 mg/L | 22.3 mg/L | 28.6 mg/L | – | concentration dependent increase | – | 24.5 ± 4.0 mg/L | 24.5 ± 4.0 mg/L
